Laboratory results taken from patent US20070231406A1, “Use of gallium to treat biofilm-associated infections” (priority 2006, published 2007).
Like-named read-outs stand apart in the source and are kept apart here.

Key:
P. aeruginosa Xen5 = format: in vivo, Pseudomonas aeruginosa
Experimental: (§1) Catheter-associated UTI with Pseudomonas aeruginosa Xen5 (10^6 CFU/catheter) in CF-1 female mice was established as described by Kadurugamuwa et al. (2005) Infection and Immunity 73(7):3878-87). Gallium maltolate (GaM) was assessed for efficacy against urinary tract infection (UTI) by P. aeruginosa, alone or in combination with ciprofloxacin (cipro) using bioluminescent engineered P. aeruginosa Xen5 in a CF-1 female mice UTI model that allows real time monitoring of infection with the Xenogen IVIS® Imaging System.
(§2) Catheter-associated UTI with P. aeruginosa (10^6 colony forming units (CFU)/catheter) were established in mice and treated 2 days after infection for 4 consecutive days with GaM alone; or cipro alone; or the combination of GaM and cipro. A second cycle of treatment was started on days 9-11 and the study terminated on day 21. Controls included saline-treated uninfected and infected animals.

P. aeruginosa Xen 5 = format: in vivo, Pseudomonas aeruginosa
Experimental: as §1, §2

[1] = test system: Pseudomonas aeruginosa Xen5; assay: Biophotonic monitoring of catheter-associated UTI with bioluminescent P. aeruginosa Xen5 in CF-1 female mice; format: in vivo
Experimental: as §1, §2
Ciprofloxacin US Pharmacopeia, Rockville, Md.) and gallium maltolate were administered by oral gavage. Ciprofloxacin was given in 0.2 mL of water and gallium maltolate in 0.2 mL water containing 1% carboxylmethyl cellulose. A second group of animals served as an untreated infection control group by being implanted with infected catheters and treated with saline. In another control group, animals were implanted with sterile catheters and served as a negative control.
Therapeutic agents were readministered for 3 consecutive days, after 4 days of cessation of the initial 4-day therapy.

[2] = Pharmacokinetics of serum gallium (ICP-MS) after oral gallium maltolate in female CF-1 mice; format: in vivo; details: 30 and 300 mg/kg oral gavage q.d. for 4 days
Experimental: Adult, female CF-1 mice (initial weight range 32-39 gram) were treated with 30 and 300 mg/kg gallium maltolate by oral gavage q.d. for 4 consecutive days. Both doses were administered in the same volume of drug solution, i.e., 480 μL of 2.5 and 25 mg/mL gallium maltolate in 1% carboxyl methylcellulose. Blood was drawn at the following time points after the final dose administration: 0, 0.5, 1 3, 6, 9, 12, 24, 33 and 48 hours. Blood drawn at time point ‘0’ was taken immediately after dosing. Blood samples were collected within ±5% of the scheduled time point. Whole blood (500 to 1000 μL) was drawn from a single mouse by cardiac puncture, and four mice were sacrificed per time point for each dosing group. After blood collection, the specimens were held at room temperature to allow for clot formation followed by centrifugation to obtain serum. The concentration of gallium in 100 μL serum was determined by Inductively Coupled Plasma—Mass Spectrometry (ICP-MS).
After a weighted linear regression analysis calibration curve had been established and validated by quality control analysis, serum gallium concentrations in the samples were measured and the results plotted.

[3] = ciprofloxacin 30 mg/kg b.i.d. oral
[4] = 7 days after infection, ciprofloxacin 30 mg/kg b.i.d. oral
[5] = 11 days after infection, ciprofloxacin 30 mg/kg b.i.d. oral
[6] = 14 days after infection, ciprofloxacin 30 mg/kg b.i.d. oral
[7] = 16 days after infection, ciprofloxacin 30 mg/kg b.i.d. oral
[8] = 17 days after infection, ciprofloxacin 30 mg/kg b.i.d. oral
[9] = 21 days after infection, ciprofloxacin 30 mg/kg b.i.d. oral
[10] = gallium maltolate 30 mg/kg q.d. oral
[11] = gallium maltolate 100 mg/kg q.d. oral
[12] = gallium maltolate 300 mg/kg q.d. oral
[13] = 7 days after infection, gallium maltolate 300 mg/kg q.d. oral
[14] = 11 days after infection, gallium maltolate 30 mg/kg q.d. oral
[15] = 11 days after infection, gallium maltolate 100 mg/kg q.d. oral
[16] = 11 days after infection, gallium maltolate 300 mg/kg q.d. oral
[17] = 14 days after infection, gallium maltolate 300 mg/kg q.d. oral
[18] = 16 days after infection, gallium maltolate 30 mg/kg q.d. oral
[19] = 16 days after infection, gallium maltolate 100 mg/kg q.d. oral
[20] = 16 days after infection, gallium maltolate 300 mg/kg q.d. oral
[21] = 17 days after infection, gallium maltolate 30 mg/kg q.d. oral
[22] = 17 days after infection, gallium maltolate 100 mg/kg q.d. oral
[23] = 17 days after infection, gallium maltolate 300 mg/kg q.d. oral
[24] = 21 days after infection, gallium maltolate 30 mg/kg q.d. oral
[25] = 21 days after infection, gallium maltolate 100 mg/kg q.d. oral
[26] = 21 days after infection, gallium maltolate 300 mg/kg q.d. oral

O=C(O)c1cn(C2CC2)c2cc(N3CCNCC3)c(F)cc2c1=O [Ciprofloxacin, reference compound]
% Mortality (P. aeruginosa Xen5; [3]): 12.5% | No. of animals with a kidney signal at day 21/Total no. of animals (P. aeruginosa Xen5; [3]): 1/7 | Bacterial counts in urine, Geometric Mean (P. aeruginosa Xen 5; [4]): 3.3 × 10^3 CFU/ml | Range of bacterial counts in urine (P. aeruginosa Xen 5; [4]): 2.0 × 10^2-7.0 × 10^5 CFU/ml | Bacterial counts in urine, Geometric Mean (P. aeruginosa Xen 5; [5]): 2.0 × 10^2 CFU/ml | Range of bacterial counts in urine (P. aeruginosa Xen 5; [5]): 2.0 × 10^2 CFU/ml | Bacterial counts in urine, Geometric Mean (P. aeruginosa Xen 5; [6]): 1.1 × 10^5 CFU/ml | Range of bacterial counts in urine (P. aeruginosa Xen 5; [6]): 2.0 × 10^2-1.2 × 10^7 CFU/ml | Bacterial counts in urine, Geometric Mean (P. aeruginosa Xen 5; [7]): 3.2 × 10^4 CFU/ml | Range of bacterial counts in urine (P. aeruginosa Xen 5; [7]): 2.0 × 10^2-6.0 × 10^5 CFU/ml | Bacterial counts in urine, Geometric Mean (P. aeruginosa Xen 5; [8]): 1.2 × 10^5 CFU/ml | Range of bacterial counts in urine (P. aeruginosa Xen 5; [8]): 2.0 × 10^2-8.0 × 10^6 CFU/ml | Bacterial counts in urine, Geometric Mean (P. aeruginosa Xen 5; [9]): 2.2 × 10^5 CFU/ml | Range of bacterial counts in urine (P. aeruginosa Xen 5; [9]): 2.0 × 10^2-3.6 × 10^7 CFU/ml | Percent bacterial growth in animals compared to untreated control ([1]; Day 2, ciprofloxacin 30 mg/kg b.i.d. oral): 100% | Percent bacterial growth in animals compared to untreated control ([1]; Day 5, ciprofloxacin 30 mg/kg b.i.d. oral): 3% | Percent bacterial growth in animals compared to untreated control ([1]; Day 8, ciprofloxacin 30 mg/kg b.i.d. oral): 9% | Percent bacterial growth in animals compared to untreated control ([1]; Day 10, ciprofloxacin 30 mg/kg b.i.d. oral): 2% | Percent bacterial growth in animals compared to untreated control ([1]; Day 15, ciprofloxacin 30 mg/kg b.i.d. oral): 138% | Percent bacterial growth in animals compared to untreated control ([1]; Day 21, ciprofloxacin 30 mg/kg b.i.d. oral): 272% | Bioluminescent signal after discontinuing first ciprofloxacin treatment ([1]; approximately two days after discontinuing the initial 4-day therapy): reestablishment of the infection upon cessation of antibiotic therapy | Bioluminescent signal in the bladder compared to untreated control ([1]; ciprofloxacin 30 mg/kg b.i.d., after four days of treatments): rapid decline in bioluminescent signal to almost nearly to undetectable levels | Bioluminescence signal on re-administration of antibiotic ([1]; re-administration for three consecutive days): repeat decline in the bioluminescence signal | Infection after discontinuation of second bout of ciprofloxacin treatment ([1]; soon after discontinuation of second treatment cycle): infection re-established once again and approximately reached untreated levels

Cc1occc(=O)c1[O-].Cc1occc(=O)c1[O-].Cc1occc(=O)c1[O-].[Ga+3] [Gallium maltolate, gallium maltolate]
Kidney infections at the termination of the study (P. aeruginosa Xen5; at all doses tested, day 21): free of kidney infections | % Mortality (P. aeruginosa Xen5; [10]): 25.0% | No. of animals with a kidney signal at day 21/Total no. of animals (P. aeruginosa Xen5; [10]): 0/3 | % Mortality (P. aeruginosa Xen5; [11]): 25.0% | No. of animals with a kidney signal at day 21/Total no. of animals (P. aeruginosa Xen5; [11]): 0/3 | % Mortality (P. aeruginosa Xen5; [12]): 0.0% | No. of animals with a kidney signal at day 21/Total no. of animals (P. aeruginosa Xen5; [12]): 0/4 | Bacterial counts in urine, Geometric Mean (P. aeruginosa Xen 5; [13]): 3.0 × 10^5 CFU/ml | Range of bacterial counts in urine (P. aeruginosa Xen 5; [13]): 1.3 × 10^5-1.5 × 10^6 CFU/ml | Bacterial counts in urine, Geometric Mean (P. aeruginosa Xen 5; [14]): 1.5 × 10^5 CFU/ml | Range of bacterial counts in urine (P. aeruginosa Xen 5; [14]): 1.2 × 10^5-1.8 × 10^5 CFU/ml | Bacterial counts in urine, Geometric Mean (P. aeruginosa Xen 5; [15]): 4.6 × 10^4 CFU/ml | Range of bacterial counts in urine (P. aeruginosa Xen 5; [15]): 2.0 × 10^2-6.0 × 10^6 CFU/ml | Bacterial counts in urine, Geometric Mean (P. aeruginosa Xen 5; [16]): 1.1 × 10^5 CFU/ml | Range of bacterial counts in urine (P. aeruginosa Xen 5; [16]): 2.2 × 10^4-6.2 × 10^5 CFU/ml | Bacterial counts in urine, Geometric Mean (P. aeruginosa Xen 5; [17]): 2.3 × 10^5 CFU/ml | Range of bacterial counts in urine (P. aeruginosa Xen 5; [17]): 1.2 × 10^5-6.0 × 10^5 CFU/ml | Bacterial counts in urine, Geometric Mean (P. aeruginosa Xen 5; [18]): 2.4 × 10^5 CFU/ml | Range of bacterial counts in urine (P. aeruginosa Xen 5; [18]): 1.2 × 10^5-6.0 × 10^5 CFU/ml | Bacterial counts in urine, Geometric Mean (P. aeruginosa Xen 5; [19]): 1.1 × 10^4 CFU/ml | Range of bacterial counts in urine (P. aeruginosa Xen 5; [19]): 2.0 × 10^2-3.0 × 10^6 CFU/ml | Bacterial counts in urine, Geometric Mean (P. aeruginosa Xen 5; [20]): 5.8 × 10^5 CFU/ml | Range of bacterial counts in urine (P. aeruginosa Xen 5; [20]): 3.2 × 10^5-8 × 10^5 CFU/ml | Bacterial counts in urine, Geometric Mean (P. aeruginosa Xen 5; [21]): 1.6 × 10^5 CFU/ml | Range of bacterial counts in urine (P. aeruginosa Xen 5; [21]): 4.0 × 10^4-6.0 × 10^5 CFU/ml | Bacterial counts in urine, Geometric Mean (P. aeruginosa Xen 5; [22]): 2.9 × 10^4 CFU/ml | Range of bacterial counts in urine (P. aeruginosa Xen 5; [22]): 2.0 × 10^2-2.0 × 10^6 CFU/ml | Bacterial counts in urine, Geometric Mean (P. aeruginosa Xen 5; [23]): 3.2 × 10^5 CFU/ml | Range of bacterial counts in urine (P. aeruginosa Xen 5; [23]): 4.0 × 10^4-1.6 × 10^6 CFU/ml | Bacterial counts in urine, Geometric Mean (P. aeruginosa Xen 5; [24]): 1.6 × 10^5 CFU/ml | Range of bacterial counts in urine (P. aeruginosa Xen 5; [24]): 1.2 × 10^4-2.0 × 10^6 CFU/ml | Bacterial counts in urine, Geometric Mean (P. aeruginosa Xen 5; [25]): 8.2 × 10^3 CFU/ml | Range of bacterial counts in urine (P. aeruginosa Xen 5; [25]): 2.0 × 10^2-1.4 × 10^6 CFU/ml | Bacterial counts in urine, Geometric Mean (P. aeruginosa Xen 5; [26]): 3.1 × 10^5 CFU/ml | Range of bacterial counts in urine (P. aeruginosa Xen 5; [26]): 1.6 × 10^5-5.6 × 10^6 CFU/ml | Percent bacterial growth in animals compared to untreated control ([1]; Day 2, gallium maltolate 30 mg/kg q.d. oral): 100% | Percent bacterial growth in animals compared to untreated control ([1]; Day 2, gallium maltolate 100 mg/kg q.d. oral): 100% | Percent bacterial growth in animals compared to untreated control ([1]; Day 2, gallium maltolate 300 mg/kg q.d. oral): 100% | Percent bacterial growth in animals compared to untreated control ([1]; Day 5, gallium maltolate 30 mg/kg q.d. oral): 60% | Percent bacterial growth in animals compared to untreated control ([1]; Day 5, gallium maltolate 100 mg/kg q.d. oral): 33% | Percent bacterial growth in animals compared to untreated control ([1]; Day 5, gallium maltolate 300 mg/kg q.d. oral): 19% | Percent bacterial growth in animals compared to untreated control ([1]; Day 8, gallium maltolate 30 mg/kg q.d. oral): 10% | Percent bacterial growth in animals compared to untreated control ([1]; Day 8, gallium maltolate 100 mg/kg q.d. oral): 12% | Percent bacterial growth in animals compared to untreated control ([1]; Day 8, gallium maltolate 300 mg/kg q.d. oral): 7% | Percent bacterial growth in animals compared to untreated control ([1]; Day 10, gallium maltolate 30 mg/kg q.d. oral): 13% | Percent bacterial growth in animals compared to untreated control ([1]; Day 10, gallium maltolate 100 mg/kg q.d. oral): 2% | Percent bacterial growth in animals compared to untreated control ([1]; Day 10, gallium maltolate 300 mg/kg q.d. oral): 4% | Percent bacterial growth in animals compared to untreated control ([1]; Day 15, gallium maltolate 30 mg/kg q.d. oral): 54% | Percent bacterial growth in animals compared to untreated control ([1]; Day 15, gallium maltolate 100 mg/kg q.d. oral): 11% | Percent bacterial growth in animals compared to untreated control ([1]; Day 15, gallium maltolate 300 mg/kg q.d. oral): 20% | Percent bacterial growth in animals compared to untreated control ([1]; Day 21, gallium maltolate 30 mg/kg q.d. oral): 22% | Percent bacterial growth in animals compared to untreated control ([1]; Day 21, gallium maltolate 100 mg/kg q.d. oral): 1% | Percent bacterial growth in animals compared to untreated control ([1]; Day 21, gallium maltolate 300 mg/kg q.d. oral): 8% | Recurrence of infection after termination of administration ([1]; gallium maltolate 300 mg/kg): recurrence of high levels of infection did not occur | Bioluminescence signal level ([1]; gallium maltolate 300 mg/kg, remained until termination on day 21): approximately 10^5 photons/catheter | Antibacterial growth activity compared to untreated control ([1]; gallium maltolate 30 and 100 mg/kg): showed antibacterial growth activity | Initial half-life of elimination of serum gallium [2]: 8 to 12 h | Time of peak serum gallium concentration ([2]; after final dose): within half hour
